Source: ChEMBL document CHEMBL1201862, “PubChem BioAssay data set” (2004)
Activity calls are given as the source filed them. For most assays here, no stated cut-off is given here; in the data, actives have a measured EC50 and inactives only a lower limit.

Legend:
[1] = biological target: T1, Replicative DNA helicase DnaB (Mycobacterium tuberculosis, UniProt P9WMR3); assay: DnaB intein splicing inhibitors, dose response, biochemical, cell-free fluorescence (AID 449749); assay type: functional
T1 sequence (P9WMR3 whole entry): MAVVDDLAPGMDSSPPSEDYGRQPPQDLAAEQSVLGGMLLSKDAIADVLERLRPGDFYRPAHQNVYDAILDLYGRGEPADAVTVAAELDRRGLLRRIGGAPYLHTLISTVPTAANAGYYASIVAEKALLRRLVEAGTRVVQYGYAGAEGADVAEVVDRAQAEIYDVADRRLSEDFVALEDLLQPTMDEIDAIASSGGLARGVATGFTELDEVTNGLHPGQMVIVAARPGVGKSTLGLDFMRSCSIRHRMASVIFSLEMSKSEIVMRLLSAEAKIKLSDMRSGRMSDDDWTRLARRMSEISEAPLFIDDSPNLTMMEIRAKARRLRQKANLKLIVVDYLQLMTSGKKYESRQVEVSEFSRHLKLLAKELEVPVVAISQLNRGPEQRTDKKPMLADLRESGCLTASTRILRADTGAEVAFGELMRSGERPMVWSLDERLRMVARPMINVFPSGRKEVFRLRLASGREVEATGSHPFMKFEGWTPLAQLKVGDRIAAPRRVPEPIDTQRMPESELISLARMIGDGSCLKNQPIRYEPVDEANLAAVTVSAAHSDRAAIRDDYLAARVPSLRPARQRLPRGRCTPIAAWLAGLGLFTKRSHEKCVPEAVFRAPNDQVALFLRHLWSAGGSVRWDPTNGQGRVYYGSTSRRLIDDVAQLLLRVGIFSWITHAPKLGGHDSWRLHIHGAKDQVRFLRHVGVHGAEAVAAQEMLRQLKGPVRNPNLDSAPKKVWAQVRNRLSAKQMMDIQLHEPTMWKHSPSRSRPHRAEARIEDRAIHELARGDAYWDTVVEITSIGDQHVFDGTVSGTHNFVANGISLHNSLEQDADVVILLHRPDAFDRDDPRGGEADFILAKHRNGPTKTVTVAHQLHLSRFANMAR

[2] = biological target: T2, Mannose-6-phosphate isomerase (Homo sapiens, UniProt P34949); assay: MPI enzyme activity inhibition – biochemical, fluorescence intensity, coupled assay, primary screen (AID 1209)
T2 sequence (P34949 whole entry): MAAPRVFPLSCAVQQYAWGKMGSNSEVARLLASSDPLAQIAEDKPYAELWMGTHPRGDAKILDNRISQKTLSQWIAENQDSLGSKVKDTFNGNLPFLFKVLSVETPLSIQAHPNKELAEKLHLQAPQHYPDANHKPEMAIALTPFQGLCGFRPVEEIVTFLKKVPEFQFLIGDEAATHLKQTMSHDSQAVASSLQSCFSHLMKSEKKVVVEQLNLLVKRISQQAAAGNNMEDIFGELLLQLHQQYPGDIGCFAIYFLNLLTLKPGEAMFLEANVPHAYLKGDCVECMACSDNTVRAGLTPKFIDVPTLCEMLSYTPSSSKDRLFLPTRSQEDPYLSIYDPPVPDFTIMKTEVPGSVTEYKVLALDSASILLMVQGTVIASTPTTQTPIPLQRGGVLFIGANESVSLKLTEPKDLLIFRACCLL

[3] = biological target: T2, Mannose-6-phosphate isomerase; assay: MPI inhibition at elevated mannose 6-phosphate – biochemical, fluorescence intensity, high mannose 6-phosphate, primary screen (AID 1220)
[4] = biological target: T3, Protein RecA (Mycobacterium tuberculosis, UniProt P9WHJ3); assay: Fluorescence Cell-Free Homogeneous Dose Retest to Identify Inhibitors of RecA-Intein Splicing Activity. [Related pubchem assays (depositor defined):AID2097, AID2223, AID489010, AID492950]; assay type: functional
T3 sequence (P9WHJ3 whole entry): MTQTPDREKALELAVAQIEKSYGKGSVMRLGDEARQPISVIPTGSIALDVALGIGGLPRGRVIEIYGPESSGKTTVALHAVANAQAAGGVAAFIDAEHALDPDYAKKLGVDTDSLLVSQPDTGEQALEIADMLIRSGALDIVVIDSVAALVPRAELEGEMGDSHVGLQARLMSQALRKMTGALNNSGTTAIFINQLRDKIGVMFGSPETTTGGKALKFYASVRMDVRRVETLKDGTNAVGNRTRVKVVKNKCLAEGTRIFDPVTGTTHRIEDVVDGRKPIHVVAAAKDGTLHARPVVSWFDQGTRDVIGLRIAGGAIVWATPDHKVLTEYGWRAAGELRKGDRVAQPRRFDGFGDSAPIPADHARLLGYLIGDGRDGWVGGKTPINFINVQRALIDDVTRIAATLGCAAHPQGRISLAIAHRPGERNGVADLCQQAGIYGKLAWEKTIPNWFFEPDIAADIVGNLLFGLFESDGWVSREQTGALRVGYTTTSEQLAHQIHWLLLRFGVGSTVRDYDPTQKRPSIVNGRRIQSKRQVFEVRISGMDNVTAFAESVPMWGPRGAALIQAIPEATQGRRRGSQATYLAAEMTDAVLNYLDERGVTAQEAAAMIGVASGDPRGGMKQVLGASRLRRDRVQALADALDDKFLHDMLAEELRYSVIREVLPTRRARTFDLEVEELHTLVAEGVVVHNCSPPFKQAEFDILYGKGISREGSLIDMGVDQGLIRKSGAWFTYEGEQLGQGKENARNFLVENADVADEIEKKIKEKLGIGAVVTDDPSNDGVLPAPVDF

[5] = fluconazole-exposed Candida albicans growth modulators – fluorescence, retest, confirmation (AID 2467); assay type: functional, cell-based
[6] = biological target: Aspartyl aminopeptidase (Plasmodium falciparum 3D7, UniProt Q8I2J3)
[7] = NIH-3T3 fibroblast cytotoxicity, dose response, cytotoxicity control, cell-based, fluorescence, Alamar Blue, secondary assay (AID 2327); assay type: functional;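 further: NIH-3T3 mouse fibroblasts cultured with fluconazole at 8 µg/mL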
[8] = biological target: Procathepsin L (Homo sapiens, UniProt P07711)
[9] = biological target: DNA dC->dU-editing enzyme APOBEC-3G (Homo sapiens, UniProt Q9HC16); assay: Dose Response confirmation of small molecule APOBEC3G DNA Deaminase Inhibitors via a fluorescence-based single-stranded DNA deaminase assay. [Related pubchem assays (depositor defined):AID493012, AID493028]; assay type: functional
[10] = biological target: Bcl-2-like protein 1 (Homo sapiens, UniProt Q07817); assay: blockers of BCLXL peptide binding – biochemical, fluorescence polarization, 1536-well, selectivity assay for MCL1 inhibitor project, dose response (AID 2218)
[11] = biological target: Induced myeloid leukemia cell differentiation protein Mcl-1 (Homo sapiens, UniProt Q07820); assay: blockers of MCL1 binding to BIM peptide – biochemical, fluorescence polarization, BIM-BH3 peptide, 1536-well, dose response (AID 2217)
[12] = biological target: DNA dC->dU-editing enzyme APOBEC-3A (Homo sapiens, UniProt P31941); assay: A3A deaminase inhibition for selectivity – biochemical, dose response (AID 504722); assay type: functional
[13] = alpha-synuclein stem-loop luciferase translation blockers – H4 neuroglioma cells, luminescence, confirmation (AID 1988); assay type: functional, cell-based
[14] = test system: BJ; assay: BJ-TERT-LT-ST fibroblast viability loss – cell-based, RAS-independent, luminescence, dose response (AID 1935); assay type: functional; details: Homo sapiens;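 further: BJ fibroblasts immortalized with TERT plus LT and ST oncogenes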
[15] = luciferase reporter signal suppression in cells – H4 neuroglioma cells, luminescence, dose response (AID 1990); assay type: functional, cell-based
[16] = luciferase reporter signal reduction – luminescence, H4-C neuroglioblastoma cells, dose response (AID 2458); assay type: functional, cell-based;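 further: H4 neuroglioblastoma cells stably carrying a luciferase reporter gene fusion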
[17] = Luminescence-based dose response cell-based high throughput screening assay for cytotoxic compounds using the IEC-6 intestinal epithelial cell line. [Related pubchem assays: 1858 (Summary AID.), 1825 (Counterscreen.), 1907 (Confirmation screen.)]; assay type: functional
[18] = test system: BJ; assay: cells; assay type: functional, cell-based; details: Homo sapiens
[19] = test system: BJ; assay: BJ-TERT fibroblast viability loss – cell-based, RAS-independent, luminescence, dose response (AID 1933); assay type: functional; details: Homo sapiens
[20] = test system: BJ; assay: growth inhibition of engineered Ras-driven BJ cells – cell-based, alamar blue fluorescence, cherrypicked samples, dose response (AID 2631); assay type: functional; details: Homo sapiens;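 further: confirmatory dose-response assay in RAS-dependent BJ fibroblasts engineered with TERT, LT and ST, with cytotoxicity read by fluorescence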
[21] = DRD fibroblast viability loss – cell-based, non-viral oncogenic, luminescence, dose response (AID 1934); assay type: functional; details: Homo sapiens
[22] = alpha-synuclein stem-loop translation blockers – luminescence, H4 neuroglioblastoma cells, dose confirmation, confirmation (AID 2454); assay type: functional, cell-based;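 further: H4 neuroglioblastoma cells carrying an alpha-synuclein 5'UTR luciferase reporter; potency for inhibition of the luciferase signal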
[23] = Luminescence Cell-Based Dose Response HTS to Identify Inhibitors of 5'UTR Stem-Loop Driven Prion Protein mRNA Translation in H4 Neuroglioblastoma Cells. [Related pubchem assays: 1827 (Project Summary), 1813 (Primary HTS)]; assay type: functional
[24] = cells; assay type: functional, cell-based
[25] = biological target: Lytic switch protein BZLF1 (Epstein-Barr virus (strain B95-8) (HHV-4) (Human herpesvirus 4), UniProt P03206); assay: inhibition of BZLF1 ZTA DNA binding – biochemical, fluorescence polarization, Epstein-Barr virus, 1536-well, counter-screen for EBNA-1 inhibitor project, dose response (AID 2377); design: species or system human gammaherpesvirus 4;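 further: fluorescence polarization of Cy5-labelled ZRE DNA probe bound by purified Zta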
[26] = biological target: Epstein-Barr nuclear antigen 1 (Epstein-Barr virus (strain B95-8) (HHV-4) (Human herpesvirus 4), UniProt P03211); assay: inhibition of EBV nuclear antigen 1 DNA binding – biochemical, fluorescence polarization, 1536-well, dose response (AID 2381); design: species or system human gammaherpesvirus 4;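 further: fluorescence polarization of a Cy5 DNA probe bound by EBNA-1 protein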
[27] = biological target: DNA repair and recombination protein RAD54-like (Homo sapiens, UniProt Q92698); assay: RAD54 Holliday junction migration blockers – biochemical, fluorescence, cherry-picked samples, dose series, confirmation (AID 651657); assay type: functional
[28] = HPDE-C7 pancreatic duct cell viability loss – fluorescence, HTS (AID 430); assay type: functional, cell-based; details: Homo sapiens
[29] = viability loss of HPDE-C7K cells – cell-based, fluorescence, HTS, primary screen (AID 431); assay type: functional; details: Homo sapiens
[30] = biological target: T4, RNA-binding protein pos-1 (Caenorhabditis elegans, UniProt G5EF15); assay: disruptors of C. elegans POS-1 RNA interaction – biochemical, fluorescence polarization, dose response (AID 1964);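 further: purified POS-1 fused to maltose binding protein made in E. coli; potency of compounds blocking POS-1 binding to fluorescent RNA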
T4 sequence (G5EF15 whole entry): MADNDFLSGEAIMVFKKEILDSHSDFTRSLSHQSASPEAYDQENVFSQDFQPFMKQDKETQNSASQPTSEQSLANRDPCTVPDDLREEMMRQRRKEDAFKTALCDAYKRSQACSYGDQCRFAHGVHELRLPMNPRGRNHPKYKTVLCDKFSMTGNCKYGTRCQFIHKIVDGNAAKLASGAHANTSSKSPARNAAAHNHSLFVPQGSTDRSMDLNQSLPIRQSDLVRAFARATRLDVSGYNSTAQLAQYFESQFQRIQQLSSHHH

[31] = biological target: Large T antigen (Simian virus 40, UniProt P03070); assay type: functional, Betapolyomavirus macacae;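 further: Confirmatory-stage PubChem screen for compounds that inhibit SV40 T antigen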
[32] = Luminescence Cell-Based Dose Confirmation HTS to Identify Inhibitors of Platelet Dense Granule Release. [Related pubchem assays: 1663 (Primary HTS), 1678 (Summary of Project)]; assay type: functional
[33] = NIH3T3 cell viability loss – ATP luminescence, mouse fibroblasts, counter-screen, dose response (AID 2010); assay type: functional, cell-based;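 further: cells exposed to compound for about 90 hours before reading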
[34] = biological target: Luciferin 4-monooxygenase (Photinus pyralis, UniProt P08659); assay: inhibition of purified Photinus pyralis luciferase – biochemical, luminescence, dose response (AID 1891)
[35] = Luminescence Cell-Based Dose Retest to Confirm Inhibitors of Cancer Stem Cells. [Related pubchem assays (depositor defined):AID2717, AID2721]; assay type: functional; details: Homo sapiens
[36] = Trypanosoma cruzi growth suppression in host cells – NIH3T3 host cells, beta-gal luminescence, confirmation (AID 2044); assay type: functional, cell-based;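 further: intracellular parasites grown in NIH/3T3 mouse fibroblasts as host cells; luminescent beta-galactosidase reporter signal from transgenic T. cruzi replicating inside host cells; inhibitors lower the luminescence signal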
[37] = microbe, parasite or virus in culture; assay type: functional; details: Mycobacterium tuberculosis

Lytic switch protein BZLF1, sequence (P03206 whole entry): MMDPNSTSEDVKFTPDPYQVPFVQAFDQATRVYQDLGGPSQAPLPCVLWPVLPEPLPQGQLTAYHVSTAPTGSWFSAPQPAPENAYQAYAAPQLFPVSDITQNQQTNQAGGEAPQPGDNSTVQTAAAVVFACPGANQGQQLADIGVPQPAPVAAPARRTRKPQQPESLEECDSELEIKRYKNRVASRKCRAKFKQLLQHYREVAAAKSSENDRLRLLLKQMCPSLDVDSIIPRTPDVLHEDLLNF
Procathepsin L, sequence (P07711 whole entry): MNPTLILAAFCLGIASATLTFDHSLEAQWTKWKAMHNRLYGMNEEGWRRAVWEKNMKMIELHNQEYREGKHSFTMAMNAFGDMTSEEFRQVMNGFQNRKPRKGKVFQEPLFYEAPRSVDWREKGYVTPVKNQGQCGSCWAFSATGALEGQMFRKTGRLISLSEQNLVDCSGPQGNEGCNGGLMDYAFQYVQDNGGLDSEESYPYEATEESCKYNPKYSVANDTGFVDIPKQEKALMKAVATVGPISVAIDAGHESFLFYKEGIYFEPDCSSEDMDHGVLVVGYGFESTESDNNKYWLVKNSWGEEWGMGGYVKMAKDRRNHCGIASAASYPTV
Aspartyl aminopeptidase, sequence (Q8I2J3 whole entry): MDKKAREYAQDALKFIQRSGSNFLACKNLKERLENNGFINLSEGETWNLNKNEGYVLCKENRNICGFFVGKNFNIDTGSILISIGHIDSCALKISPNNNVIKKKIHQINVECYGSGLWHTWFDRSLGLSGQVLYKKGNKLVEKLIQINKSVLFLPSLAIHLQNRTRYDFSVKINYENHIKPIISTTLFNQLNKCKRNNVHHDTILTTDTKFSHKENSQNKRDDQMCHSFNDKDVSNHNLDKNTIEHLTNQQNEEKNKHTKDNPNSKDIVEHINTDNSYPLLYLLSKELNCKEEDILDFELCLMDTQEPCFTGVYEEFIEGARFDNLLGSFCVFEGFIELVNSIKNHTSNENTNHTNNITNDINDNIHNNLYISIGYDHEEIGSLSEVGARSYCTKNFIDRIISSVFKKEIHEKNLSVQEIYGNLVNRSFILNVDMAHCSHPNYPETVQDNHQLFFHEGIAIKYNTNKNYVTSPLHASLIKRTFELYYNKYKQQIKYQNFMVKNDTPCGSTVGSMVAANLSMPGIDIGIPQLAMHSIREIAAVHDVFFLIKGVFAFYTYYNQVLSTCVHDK
Epstein-Barr nuclear antigen 1, sequence (P03211 whole entry): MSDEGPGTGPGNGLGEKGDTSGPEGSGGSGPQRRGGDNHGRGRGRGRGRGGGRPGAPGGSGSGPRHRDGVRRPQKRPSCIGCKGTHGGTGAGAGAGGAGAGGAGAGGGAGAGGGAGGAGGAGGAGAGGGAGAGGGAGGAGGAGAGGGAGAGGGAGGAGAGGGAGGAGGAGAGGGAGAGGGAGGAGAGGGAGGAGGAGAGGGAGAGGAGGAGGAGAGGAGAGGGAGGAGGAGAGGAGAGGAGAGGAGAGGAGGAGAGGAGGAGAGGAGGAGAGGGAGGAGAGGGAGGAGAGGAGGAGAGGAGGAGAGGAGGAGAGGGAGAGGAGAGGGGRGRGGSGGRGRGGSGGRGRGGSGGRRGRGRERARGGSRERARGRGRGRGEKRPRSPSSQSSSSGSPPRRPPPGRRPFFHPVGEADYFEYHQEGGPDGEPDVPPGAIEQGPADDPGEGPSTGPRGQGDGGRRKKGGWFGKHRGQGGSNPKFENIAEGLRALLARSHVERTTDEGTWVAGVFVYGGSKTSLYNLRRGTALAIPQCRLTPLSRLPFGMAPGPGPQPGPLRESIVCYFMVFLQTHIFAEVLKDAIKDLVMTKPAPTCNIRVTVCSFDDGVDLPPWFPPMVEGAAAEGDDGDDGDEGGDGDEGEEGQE
Luciferin 4-monooxygenase, sequence (P08659 whole entry): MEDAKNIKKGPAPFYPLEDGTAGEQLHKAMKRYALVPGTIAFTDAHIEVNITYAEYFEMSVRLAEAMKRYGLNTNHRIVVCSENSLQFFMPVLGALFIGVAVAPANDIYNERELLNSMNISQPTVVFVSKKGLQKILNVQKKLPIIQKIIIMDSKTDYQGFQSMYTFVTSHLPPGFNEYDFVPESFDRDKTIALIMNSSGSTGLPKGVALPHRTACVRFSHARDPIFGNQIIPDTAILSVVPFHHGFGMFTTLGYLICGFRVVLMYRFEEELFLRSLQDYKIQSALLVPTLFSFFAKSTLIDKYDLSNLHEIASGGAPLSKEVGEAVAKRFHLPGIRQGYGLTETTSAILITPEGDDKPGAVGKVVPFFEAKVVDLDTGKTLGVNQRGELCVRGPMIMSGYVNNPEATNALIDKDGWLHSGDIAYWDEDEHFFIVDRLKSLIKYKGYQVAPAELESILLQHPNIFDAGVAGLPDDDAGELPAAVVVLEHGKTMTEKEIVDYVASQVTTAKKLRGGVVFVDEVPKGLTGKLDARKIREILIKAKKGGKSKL
DNA repair and recombination protein RAD54-like, sequence (Q92698 whole entry): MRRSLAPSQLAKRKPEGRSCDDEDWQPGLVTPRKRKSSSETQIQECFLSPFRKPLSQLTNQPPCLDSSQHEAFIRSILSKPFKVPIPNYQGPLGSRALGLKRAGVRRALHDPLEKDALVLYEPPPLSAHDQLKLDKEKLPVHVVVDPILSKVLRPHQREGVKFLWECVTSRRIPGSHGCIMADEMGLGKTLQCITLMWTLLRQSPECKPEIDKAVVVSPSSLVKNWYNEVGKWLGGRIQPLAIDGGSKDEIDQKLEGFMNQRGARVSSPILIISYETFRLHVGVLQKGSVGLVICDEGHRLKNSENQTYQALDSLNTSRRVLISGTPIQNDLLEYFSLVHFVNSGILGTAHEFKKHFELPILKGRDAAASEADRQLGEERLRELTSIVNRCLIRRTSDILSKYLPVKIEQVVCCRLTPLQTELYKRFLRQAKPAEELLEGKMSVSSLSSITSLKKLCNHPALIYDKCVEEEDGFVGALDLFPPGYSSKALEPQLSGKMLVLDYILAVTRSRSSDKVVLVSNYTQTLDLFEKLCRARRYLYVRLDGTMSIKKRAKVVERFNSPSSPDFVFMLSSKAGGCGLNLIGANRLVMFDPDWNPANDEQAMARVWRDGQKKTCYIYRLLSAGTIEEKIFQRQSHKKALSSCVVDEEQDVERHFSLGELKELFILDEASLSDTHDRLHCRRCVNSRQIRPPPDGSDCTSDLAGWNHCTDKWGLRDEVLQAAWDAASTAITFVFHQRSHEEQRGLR
Induced myeloid leukemia cell differentiation protein Mcl-1, sequence (Q07820 whole entry): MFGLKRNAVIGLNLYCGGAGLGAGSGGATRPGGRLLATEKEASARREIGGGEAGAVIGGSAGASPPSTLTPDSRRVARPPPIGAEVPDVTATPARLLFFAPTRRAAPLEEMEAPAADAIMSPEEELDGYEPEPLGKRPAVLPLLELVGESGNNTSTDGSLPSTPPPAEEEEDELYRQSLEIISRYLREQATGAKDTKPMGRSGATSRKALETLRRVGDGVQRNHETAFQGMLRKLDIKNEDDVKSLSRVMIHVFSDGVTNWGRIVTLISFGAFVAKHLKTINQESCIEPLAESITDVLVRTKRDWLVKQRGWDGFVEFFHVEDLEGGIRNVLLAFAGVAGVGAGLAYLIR
DNA dC->dU-editing enzyme APOBEC-3G, sequence (Q9HC16 whole entry): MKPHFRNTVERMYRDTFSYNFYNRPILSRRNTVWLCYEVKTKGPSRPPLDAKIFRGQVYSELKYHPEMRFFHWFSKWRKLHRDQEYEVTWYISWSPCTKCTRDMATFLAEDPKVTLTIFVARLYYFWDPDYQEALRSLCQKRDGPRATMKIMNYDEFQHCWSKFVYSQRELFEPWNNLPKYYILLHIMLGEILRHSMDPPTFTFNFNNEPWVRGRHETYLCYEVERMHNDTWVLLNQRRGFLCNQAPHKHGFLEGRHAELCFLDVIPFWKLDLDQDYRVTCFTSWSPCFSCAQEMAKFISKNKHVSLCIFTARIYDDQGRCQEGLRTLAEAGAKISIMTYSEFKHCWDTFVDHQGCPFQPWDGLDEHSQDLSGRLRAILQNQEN
Bcl-2-like protein 1, sequence (Q07817 whole entry): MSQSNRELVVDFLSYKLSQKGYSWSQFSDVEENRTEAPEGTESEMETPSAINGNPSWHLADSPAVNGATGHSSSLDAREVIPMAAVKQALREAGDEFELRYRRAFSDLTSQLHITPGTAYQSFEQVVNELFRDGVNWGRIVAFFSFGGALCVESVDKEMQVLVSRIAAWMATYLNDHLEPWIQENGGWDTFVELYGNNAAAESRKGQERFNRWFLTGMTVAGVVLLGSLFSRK
Large T antigen, sequence (P03070 whole entry): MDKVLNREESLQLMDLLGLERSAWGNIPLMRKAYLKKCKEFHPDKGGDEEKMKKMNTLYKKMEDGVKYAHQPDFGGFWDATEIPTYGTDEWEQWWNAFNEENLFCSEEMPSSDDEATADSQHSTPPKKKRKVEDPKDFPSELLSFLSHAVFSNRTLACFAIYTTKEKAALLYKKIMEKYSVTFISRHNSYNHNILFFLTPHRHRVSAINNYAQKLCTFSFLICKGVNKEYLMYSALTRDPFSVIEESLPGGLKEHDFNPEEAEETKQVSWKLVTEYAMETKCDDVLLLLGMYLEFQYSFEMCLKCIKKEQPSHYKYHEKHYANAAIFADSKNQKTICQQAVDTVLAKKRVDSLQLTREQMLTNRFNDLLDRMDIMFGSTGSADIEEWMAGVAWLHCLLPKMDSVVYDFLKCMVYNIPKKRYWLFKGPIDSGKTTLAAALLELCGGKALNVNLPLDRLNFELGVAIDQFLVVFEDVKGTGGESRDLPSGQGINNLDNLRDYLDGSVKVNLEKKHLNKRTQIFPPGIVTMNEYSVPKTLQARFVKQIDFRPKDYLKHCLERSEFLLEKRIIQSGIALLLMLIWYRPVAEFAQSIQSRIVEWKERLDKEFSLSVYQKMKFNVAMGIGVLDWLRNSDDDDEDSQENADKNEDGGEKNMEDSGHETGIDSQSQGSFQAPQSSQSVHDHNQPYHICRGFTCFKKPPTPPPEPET
DNA dC->dU-editing enzyme APOBEC-3A, sequence (P31941 whole entry): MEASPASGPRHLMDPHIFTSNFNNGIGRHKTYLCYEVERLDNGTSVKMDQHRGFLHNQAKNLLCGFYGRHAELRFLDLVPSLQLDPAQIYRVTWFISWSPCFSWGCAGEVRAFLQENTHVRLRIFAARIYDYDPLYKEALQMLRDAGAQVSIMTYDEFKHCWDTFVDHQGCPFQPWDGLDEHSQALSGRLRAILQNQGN

O=[N+]([O-])c1cccc(/N=C/C2=C(O)c3ccccc3CC2)c1
AC50 [1]: > 380 µM (inactive) | IC50 [2]: 10.3 µM (active) | IC50 [3]: > 50 µM (not active) | EC50 [4]: 10.6 µM (active)

Cc1ccc([N+](=O)[O-])cc1-c1[nH]c(-c2ccc(O)c(O)c2)nc1-c1ccccc1
EC50 [5]: > 38 µM (not active) | IC50 [6]: 1.69 µM (active) | EC50 [7]: 57.8 µM (active) | IC50 [8]: > 59.6 µM (not active)

C=CCn1c(S)nnc1CSc1ccccc1[N+](=O)[O-]
IC50 [9]: 2.24 µM (active) | IC50 [10]: > 109 µM (not active) | IC50 [11]: 29.6 µM (not active) | IC50 [12]: 38.9 µM (active)

O=C(NCCOc1cccnc1)c1ccc(OC2CCN(Cc3ccccn3)CC2)cc1
EC50 [13]: < 0.1 µM (active) | EC50 [14]: 0.543 µM (inconclusive) | EC50 [15]: 0.158 µM (active) | EC50 [16]: 0.821 µM (active) | IC50 [17]: 0.0533 µM (active) | EC50 [18]: 0.334 µM (inconclusive) | EC50 [19]: 78.3 µM (active) | EC50 [20]: 0.254 µM (active) | EC50 [21]: 3.96 µM (active) | EC50 [22]: 0.623 µM (active) | EC50 [23]: 0.202 µM (inconclusive) | EC50 [24]: 0.577 µM (active)

CC1CCCC(C)N1S(=O)(=O)c1ccc(NC(=O)CCn2cnc3ccccc3c2=O)cc1 (stereo not drawn)
IC50 [25]: > 111 µM (not active) | IC50 [26]: 16.4 µM (not active)

c1ccc2c(c1)oc1c(Nc3ccc(CN4CCOCC4)cc3)ncnc12
AC50 [27]: 65.5 µM (active) | EC50 [28]: 12.8 µM (active) | EC50 [29]: 15.2 µM (active)

Cc1ccccc1N(C(=O)c1snc(C(N)=O)c1N)C(C(=O)NCC1CCCO1)c1ccc(N(C)C)cc1 (stereo not drawn)
IC50 [25]: > 111 µM (not active) | IC50 [26]: 13.6 µM (not active)

Cc1ncc(CO)c(/C=N/NC(=O)c2cc(O)c(O)c(O)c2)c1O
EC50 [30]: 71.2 µM (active) | IC50 [2]: 4.5 µM (active) | IC50 [31]: 3.72 µM (active)

CCCc1cc(-c2nc(N)ncc2-c2ccc3c(c2)OCCCO3)c(O)cc1OC
EC50 [13]: > 120 µM (not active) | EC50 [32]: > 112 µM (not active) | EC50 [15]: 14.7 µM (active) | EC50 [33]: 21 µM (active) | EC50 [34]: > 112 µM (not active) | AC50 [35]: 3.81 µM (active) | EC50 [36]: 0.884 µM (active) | EC50 [28]: 6.37 µM (active) | EC50 [29]: 5.93 µM (active) | EC50 [23]: > 120 µM (not active) | CC50 [37]: > 40 µM (active)

COCC(C)NC(=O)NC1(C(F)(F)F)Oc2ccc(Cl)cc2O1 (stereo not drawn)
AC50 [35]: 6.69 µM (active) | IC50 [6]: 1.79 µM (active) | IC50 [8]: > 59.6 µM (not active)
